Legend:
[1] = target: T1, Cathepsin K (Homo sapiens) (UniProt P43235); assay: Inhibition of recombinant human Cathepsin K expressed in Pichia pastoris X-33 assessed as residual activity at 10 uM using Z-Gly-Pro-Arg-AMC as substrate preincubated for 10 mins followed by substrate addition measured after 30 mins by fluorescence based microplate reader assay; settings: time 40.0 min
T1 sequence (whole entry): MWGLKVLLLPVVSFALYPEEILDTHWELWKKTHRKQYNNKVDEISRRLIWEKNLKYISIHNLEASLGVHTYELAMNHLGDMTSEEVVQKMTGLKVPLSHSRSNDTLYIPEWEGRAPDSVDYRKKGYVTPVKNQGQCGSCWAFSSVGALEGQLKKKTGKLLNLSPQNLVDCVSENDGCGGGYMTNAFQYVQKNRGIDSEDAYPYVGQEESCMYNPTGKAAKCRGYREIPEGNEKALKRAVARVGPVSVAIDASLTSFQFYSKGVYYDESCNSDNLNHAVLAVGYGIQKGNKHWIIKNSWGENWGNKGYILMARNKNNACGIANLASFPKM

[2] = target: Glycogen synthase kinase-3 beta (Homo sapiens, UniProt P49841); assay: Inhibition of human recombinant GSK3beta using GSK3 peptide as substrate preincubated for 15 mins followed by ATP addition and measured after 90 mins by ADP-Glo kinase assay
Glycogen synthase kinase-3 beta, sequence (P49841 whole entry): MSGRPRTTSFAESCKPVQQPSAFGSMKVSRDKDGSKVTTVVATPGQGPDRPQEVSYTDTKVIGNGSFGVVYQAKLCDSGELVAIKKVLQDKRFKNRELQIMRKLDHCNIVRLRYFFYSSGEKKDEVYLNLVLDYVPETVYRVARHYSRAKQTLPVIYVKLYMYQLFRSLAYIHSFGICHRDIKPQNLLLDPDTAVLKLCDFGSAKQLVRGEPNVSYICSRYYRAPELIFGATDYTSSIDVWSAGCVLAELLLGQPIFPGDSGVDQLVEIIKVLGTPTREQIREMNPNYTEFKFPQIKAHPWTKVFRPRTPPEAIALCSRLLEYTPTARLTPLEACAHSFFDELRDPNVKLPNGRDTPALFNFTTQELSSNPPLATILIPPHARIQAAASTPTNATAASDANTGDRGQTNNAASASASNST

[3] = tested on: HepG2; assay: Cytotoxicity against human HepG2 cells assessed as cell viability at 10 uM incubated for 72 hrs by CellTiter-Glo luminescence based assay; format: functional; settings: read-out: Activity
[4] = tested on: SH-SY5Y; assay: Cytotoxicity against human SH-SY5Y cells assessed as cell viability at 100 uM incubated for 72 hrs by CellTiter-Glo luminescence based assay; format: functional; settings: read-out: Activity
[5] = tested on: HepG2; assay: Cytotoxicity against human HepG2 cells assessed as cell viability at 100 uM incubated for 72 hrs by CellTiter-Glo luminescence based assay; format: functional; settings: read-out: Activity
[6] = tested on: HL-60; assay: Cytotoxicity against human HL-60 cells assessed as cell viability at 100 uM incubated for 72 hrs by CellTiter-Glo luminescence based assay; format: functional; settings: read-out: Activity
[7] = Cytotoxicity against human NHDF cells assessed as cell viability at 10 uM incubated for 72 hrs by CellTiter-Glo luminescence based assay; settings: read-out: Activity
[8] = tested on: HL-60; assay: Cytotoxicity against human HL-60 cells assessed as cell viability at 10 uM incubated for 72 hrs by CellTiter-Glo luminescence based assay; format: functional; settings: read-out: Activity
[9] = tested on: SH-SY5Y; assay: Cytotoxicity against human SH-SY5Y cells assessed as cell viability at 10 uM incubated for 72 hrs by CellTiter-Glo luminescence based assay; format: functional; settings: read-out: Activity
[10] = tested on: CCRF-CEM; assay: Cytotoxicity against human CCRF-CEM cells assessed as cell viability at 10 uM incubated for 72 hrs by CellTiter-Glo luminescence based assay; format: functional; settings: read-out: Activity
[11] = tested on: HeLa S3; assay: Cytotoxicity against human HeLa S3 cells assessed as cell viability at 10 uM incubated for 72 hrs by CellTiter-Glo luminescence based assay; format: functional; settings: read-out: Activity
[12] = tested on: CCRF-CEM; assay: Cytotoxicity against human CCRF-CEM cells assessed as cell viability at 100 uM incubated for 72 hrs by CellTiter-Glo luminescence based assay; format: functional; settings: read-out: Activity
[13] = tested on: HeLa S3; assay: Cytotoxicity against human HeLa S3 cells assessed as cell viability at 100 uM incubated for 72 hrs by CellTiter-Glo luminescence based assay; format: functional; settings: read-out: Activity
[14] = Cytotoxicity against human NHDF cells assessed as cell viability at 100 uM incubated for 72 hrs by CellTiter-Glo luminescence based assay; settings: read-out: Activity

| Structure (SMILES) | Activity [1] [%] | IC50 [2] [µM] | viability at 10 µM [3] [%] | viability at 100 µM [4] [%] | viability at 100 µM [5] [%] | viability at 100 µM [6] [%] | viability at 72 h, 10 µM [7] [%] | viability at 10 µM [8] [%] | viability at 10 µM [9] [%] | viability at 10 µM [10] [%] | viability at 10 µM [11] [%] | viability at 100 µM [12] [%] | viability at 100 µM [13] [%] | viability at 72 h, 100 µM [14] [%] |
| --- | --- | --- | --- | --- | --- | --- | --- | --- | --- | --- | --- | --- | --- | --- |
| O=C(Nc1nc(=O)[nH]s1)c1ccccc1 | 85 | > 10 | 99 | 90 | 77 | 110 | 104 | 101 | 103 | 102 | 99 | 96 | 101 | 100 |
| O=C(Nc1nc(=O)n(C[C@@H](CO)OCP(=O)(O)O)s1)OCC1c2ccccc2-c2ccccc21 | 85.5 | > 10 | 106 | 93 | 88 | 100 | 98 | 93 | 99 | 88 | 98 | 119 | 99 | 95 |
| O=C(Nc1nc(=O)n(CCOCP(=O)(O)O)s1)c1ccccc1 | 90.3 | > 10 | 100 | 105 | 100 | 113 | 103 | 102 | 104 | 98 | 101 | 100 | 101 | 102 |
| CC(=O)Nc1nc(=O)[nH]s1 | 76.6 | > 10 | 103 | 99 | 88 | 108 | 99 | 105 | 102 | 104 | 97 | 102 | 102 | 105 |
| CCOC(=O)Nc1nc(=O)n(C[C@@H](CO)OCP(=O)(OC(C)C)OC(C)C)s1 | 83.4 | > 10 | 101 | 104 | 93 | 101 | 104 | 97 | 104 | 67 | 90 | 45 | 87 | 100 |
| CC(C)OP(=O)(CO[C@H](CO)Cn1sc(NC(=O)c2ccccc2)nc1=O)OC(C)C | 92.9 | > 10 | 109 | 97 | 99 | 118 | 103 | 106 | 100 | 86 | 97 | 97 | 105 | 104 |
| CCOC(=O)Nc1nc(=O)n(CCOCP(=O)(OC(C)C)OC(C)C)s1 | 86.8 | > 10 | 104 | 104 | 100 | 111 | 101 | 102 | 105 | 92 | 100 | 98 | 101 | 98 |
| Cc1cnc(-c2cnc(NCCNc3ccc(C#N)cn3)nc2-c2ccc(Cl)cc2Cl)[nH]1 [LADUVIGLUSIB] |  |  | 86 |  |  |  | 53 | 119 | 77 | 28 | 67 |  |  |  |
| O=c1sn(-c2cccc3ccccc23)c(=O)n1Cc1ccccc1 [TIDEGLUSIB] |  |  | 92 |  |  |  | 57 | 34 | 80 | 30 | 69 |  |  |  |
| CN(C)/C=N/c1nc(=O)[nH]s1 | 67 | > 10 | 97 | 75 | 85 | 105 | 105 | 102 | 100 | 122 | 97 | 84 | 112 | 107 |
| Nc1nc(OCCOCP(=O)(O)O)ns1 | 90 | > 10 | 97 | 99 | 93 | 100 | 105 | 103 | 101 | 113 | 101 | 112 | 102 | 96 |
| CC(C)OP(=O)(COCCOc1nsc(/N=C/N(C)C)n1)OC(C)C | 52.9 | > 10 | 99 | 87 | 90 | 98 | 101 | 97 | 101 | 106 | 101 | 93 | 89 | 99 |
| CC(C)OP(=O)(COCCn1sc(NC(=O)c2ccccc2)nc1=O)OC(C)C | 80.6 | > 10 | 103 | 101 | 101 | 115 | 103 | 104 | 104 | 100 | 101 | 94 | 100 | 101 |

Source: ChEMBL document CHEMBL4680348, “1,2,4-Thiadiazole acyclic nucleoside phosphonates as inhibitors of cysteine dependent enzymes cathepsin K and GSK-3β” (Bioorg Med Chem, 2021)
